Tests used:
[1] = system: Gingiva-FT gingival tissue equivalents; assay: Mucosal irritation and barrier integrity of mouthwashes on intact Gingiva-FT
Protocol: To evaluate the use of 3D cultured gingival tissue equivalents of the present invention for mucosal irritation, we investigated the impact of 2 commercially available mouthwashes. To mimic the actual use case scenario, gingival tissue equivalents (surface area 0.78 cm^2) were exposed to 130 μl alcohol-free (Listerine® Gum care Zero) or alcohol-based (Listerine® Cool Mint) mouthwashes for 30 secs, washed, and cultured. After 10 hours, the tissues were re-exposed to the respective mouthwash, washed and cultured for 24 hours. Phosphate buffered saline (PBS) and 1% sodium lauryl sulphate was used as negative and positive controls respectively. Based on the OECD TG439 guidelines, 50% cellular viability was set as threshold for classification of mucosal irritants.

[2] = system: lamina propria equivalents; assay: Mucosal irritation of mouthwashes on lamina propria equivalents (oral ulcer model)
Protocol: Oral ulcers are one of the most common disturbances in the oral cavity. Since, the oral ulcers is devoid of the overlying epithelium, the barrier function provided by the epithelium is lost. […] To evaluate the use of 3D cultured lamina propria equivalents as a model of oral ulcers, we investigated the impact of 2 commercially available mouthwashes for mucosal irritation. To mimic the actual use case scenario, gingival tissue equivalents (surface area 0.78 cm^2) were exposed to 130 μl alcohol-free (Listerine® Gum care Zero) or alcohol-based (Listerine® Cool Mint) mouthwashes for 30 secs, washed, and cultured. After 10 hours, the tissues were re-exposed to the respective mouthwash, washed and cultured for 24 hours. Phosphate buffered saline (PBS) and 1% sodium lauryl sulphate was used as negative and positive controls respectively. Based on the OECD TG439 guidelines, 50% cellular viability was set as threshold for classification of mucosal irritation.

[3] = system: Gingiva-FT gingival tissue equivalents; assay: Mucosal corrosion on Gingiva-FT (OECD TG431); format: cell-based, human; settings: for tissue disruption: Gingiva-FT
Protocol: Some excipients used to incorporate the actives and formulate oral/dental care products and pharmaceuticals, have the potential to cause mucosal corrosion similar to caustic substances like acids and bases. […] Based on the OECD TG431 guidelines, 50% and 15% cellular viability was set as thresholds for 3 min and 60 min exposures respectively.

[4] = exposure 30 secs twice, 24 hours culture
[5] = lamina propria equivalents, exposure 30 secs twice, 24 hours culture

With CCCCCCCCCCCCOS(=O)(=O)[O-].[Na+] [1% sodium lauryl sulphate, sodium lauryl sulphate] as the molecule, how does the “TUNEL staining (apoptosis/cell death)” value [1, 4] read?
The value was “TUNEL positivity”.

And the “cytotoxicity (LDH assay)” value [1, 4]?
Its value is “markedly increased cytotoxicity”.

And the “tissue / epithelial disruption” value [1, 4]?
Its value is “significant tissue disruption”.

And the cellular viability ([1]; exposure 30 secs, re-exposed after 10 hours, cultured 24 hours, 50% threshold (OECD TG439))?
The cellular viability was under 50%.

And the cellular viability ([2]; lamina propria equivalents (ulcer model), exposure 30 secs, re-exposed after 10 hours, cultured 24 hours, 50% threshold (OECD TG439))?
Its cellular viability is under 50%.

And the “TUNEL staining (apoptosis/cell death)” value [2, 5]?
Its value is “TUNEL positivity”.

What about the “cytotoxicity (LDH assay)” value [2, 5] of the same molecule?
The value was “markedly increased cytotoxicity”.

What about the tissue disruption [2, 5] of the same molecule?
The tissue disruption was “significant tissue disruption”.

What does the source list for O=P(O)(O)O [37% phosphoric acid, phosphoric acid]?
tissue disruption ([3]; 3 min exposure): tissue disruption; tissue disruption ([3]; 60 min exposure): almost complete lysis of the tissues; mucosal corrosion classification ([3]; OECD TG431): corrosive (category 1A)
